Legend:
[1] = test system: KLN 205 cells (lung cell carcinoma); assay: Effect of 9d in combination with Cisplatin on tumour growth, KLN 205 (Example 11); type: in vivo, DBA/2 mice; conditions: for Tumour surface, overall values (Mean) / Tumour surface, overall values (Median) / Tumour volume, overall values (Mean) / Tumour volume, overall values (Median): Cisplatin 65 μg i.p. days 3, 6, 10, 13, 17, 20
Method: This was carried out by measuring two perpendicular diameters (d1/d2) with a calliper. These measures were used to obtain both tumour surface and volume: […] Results were expressed as single values and/or as the mean±SD or median from each experimental group. This assay was made in order to check the effect on in vivo tumour growth in mice challenged with KLN 205 cells. Their effect was compared with the combination of Cisplatin plus 9d and/or placebo. KLN 205 is a lung cell carcinoma originated in DBA/2 mouse strain, and therefore syngeneic in mice with DBA/2 genetic background (Kaneko T and […]. Growth characteristics and drug responses of a murine lung carcinoma in vitro and in vivo. Cancer Res. 38: 2084-2090; 1978). KLN 205 cells (CLS, Eppelheim, Germany) were maintained in vitro by serial passages every 3-4 days. […] Louis, Mo., USA) by seeding 5×10^6 cells onto 75 cm^2 culture flasks. Subcultures were carried out by collecting detached cells after treatment with trypsin-EDTA (Sigma, St. Louis, Mo., USA). Tumour cells, collected from 48 hour cultures, were used as source of KLN 205 cells for the studies described below. […] Tumours were established by subcutaneous inoculation in the right hind flank. Mice (DBA/2) were inoculated with 0.2 mL containing 2×10^5 viable KLN 205 cells. The day of subcutaneous inoculation will be considered Day 0 of the test. A case-control study was performed with treated and control mice in order to determine whether differences between placebo, 9d, Cisplatin or 9d+Cisplatin were present. […] The t-test was chosen for being one of the better known parametrical tests.

[2] = test system: Lewis lung cells (lung cell carcinoma); assay: Effect of 9d in combination with Cisplatin on tumour growth, Lewis lung (Example 13); type: in vivo, C57BL/6J mice; conditions: for SURFACE Overall values (Mean) / SURFACE Overall values (Median) / VOLUME Overall values (Mean) / VOLUME Overall values (Median): Cisplatin 65 μg, or both
Text: This assay was made in order to check the effect on in vivo tumour growth in mice challenged with Lewis lung cells. Their effect will be compared with the combination of chemotherapeutic agents plus 9d and/or placebo. Lewis Lung is a lung cell carcinoma originated in C57BL/6J mice strain, and therefore syngeneic in mice with C57BL/6J genetic background (Rodrigo Garzón M, Tirapu Fernández de la Cuesta […], Noel […] and […]. Use of Gene Therapy in a Subcutaneous Murine Model of Lung Cancer. Arch Bronconeumology. 42: 526-532; 2006). Lewis lung cells (CLS, Eppelheim, Germany) were maintained in vitro by serial passages every 3-4 days. […] Louis, Mo., USA) by seeding 5×10^6 cells onto 75 cm^2 culture flasks. Subcultures were carried out by collecting detached cells after treatment with trypsin-EDTA (Sigma, St. Louis, Mo., USA). Tumour cells, collected from 48 hour cultures, were used as source of Lewis Lung cells for the studies described below. […] Tumours were established by subcutaneous inoculation in the right hind flank. Mice were inoculated with 0.2 mL containing 2×10^5 viable cells. The day of subcutaneous inoculation will be considered Day 0 of the test. Mice were observed daily and the tumour size recorded twice a week. This was carried out by measuring two perpendicular diameters (d1/d2) with a calliper. These measures were used to obtain both tumour surface and volume: […] Results were expressed as single values and/or as the mean±SD or median from each experimental group. A case-control study was performed with treated and control mice in order to determine whether differences between placebo, 9d, Cisplatin or 9d+Cisplatin were present. The data obtained (tumour surface and volume) were tested for Normal distribution within the groups (Kolmogorov Smirnov test p<0.05). […] The U-test of Mann Withney was chosen for being one of the better known non-parametrical tests, anyway, results for this test are equivalent both to those of Wilcoxon's sum of ranges and Kruskal-Wallis two-groups test. We excluded of the study animals that have undetectable or unscored tumour on 31th day after tumour inoculation. Due to the high dispersion of data, outlayers were excluded of the study.

[3] = 9d 250 ng, Cisplatin 65 μg i.p.
[4] = day 0 after tumour inoculation, 9d 250 ng
[5] = day 10 after tumour inoculation, 9d 250 ng
[6] = day 13 after tumour inoculation, 9d 250 ng
[7] = day 17 after tumour inoculation, 9d 250 ng
[8] = day 20 after tumour inoculation, 9d 250 ng
[9] = day 24 after tumour inoculation, 9d 250 ng
[10] = day 27 after tumour inoculation, 9d 250 ng
[11] = day 31 after tumour inoculation, 9d 250 ng
[12] = day 34 after tumour inoculation, 9d 250 ng
[13] = day 38 after tumour inoculation, 9d 250 ng
[14] = 9d 250 ng, day 0 after tumour inoculation
[15] = 9d 250 ng, day 10 after tumour inoculation
[16] = 9d 250 ng, day 13 after tumour inoculation
[17] = 9d 250 ng, day 17 after tumour inoculation
[18] = 9d 250 ng, day 20 after tumour inoculation
[19] = 9d 250 ng, day 24 after tumour inoculation
[20] = 9d 250 ng, day 27 after tumour inoculation
[21] = 9d 250 ng, day 31 after tumour inoculation

N.N.[Cl][Pt][Cl] [Cisplatin, reference compound]
Inhibition of the in vivo growth of KLN 205 cell, in words [1, 3]: inhibit the in vivo growth | Tumour surface, overall values (Mean) [1, 4]: 0 mm^2 | Tumour surface, overall values (Median) [1, 4]: 0 mm^2 | Tumour volume, overall values (Mean) [1, 4]: 0 mm^3 | Tumour volume, overall values (Median) [1, 4]: 0 mm^3 | Tumour surface, overall values (Mean) [1, 5]: 4.07 mm^2 | Tumour surface, overall values (Median) [1, 5]: 4 mm^2 | Tumour volume, overall values (Mean) [1, 5]: 5.1 mm^3 | Tumour volume, overall values (Median) [1, 5]: 4 mm^3 | Tumour surface, overall values (Mean) [1, 6]: 14.87 mm^2 | Tumour surface, overall values (Median) [1, 6]: 16 mm^2 | Tumour volume, overall values (Mean) [1, 6]: 31.77 mm^3 | Tumour volume, overall values (Median) [1, 6]: 32 mm^3 | Tumour surface, overall values (Mean) [1, 7]: 23.93 mm^2 | Tumour surface, overall values (Median) [1, 7]: 20 mm^2 | Tumour volume, overall values (Mean) [1, 7]: 59.1 mm^3 | Tumour volume, overall values (Median) [1, 7]: 40 mm^3 | Tumour surface, overall values (Mean) [1, 8]: 39.07 mm^2 | Tumour surface, overall values (Median) [1, 8]: 36 mm^2 | Tumour volume, overall values (Mean) [1, 8]: 119.07 mm^3 | Tumour volume, overall values (Median) [1, 8]: 108 mm^3 | Tumour surface, overall values (Mean) [1, 9]: 72.2 mm^2 | Tumour surface, overall values (Median) [1, 9]: 72 mm^2 | Tumour volume, overall values (Mean) [1, 9]: 285.43 mm^3 | Tumour volume, overall values (Median) [1, 9]: 288 mm^3 | Tumour surface, overall values (Mean) [1, 10]: 97.07 mm^2 | Tumour surface, overall values (Median) [1, 10]: 99 mm^2 | Tumour volume, overall values (Mean) [1, 10]: 445.8 mm^3 | Tumour volume, overall values (Median) [1, 10]: 445.5 mm^3 | Tumour surface, overall values (Mean) [1, 11]: 124.67 mm^2 | Tumour surface, overall values (Median) [1, 11]: 120 mm^2 | Tumour volume, overall values (Mean) [1, 11]: 637.07 mm^3 | Tumour volume, overall values (Median) [1, 11]: 600 mm^3 | Tumour surface, overall values (Mean) [1, 12]: 147.93 mm^2 | Tumour surface, overall values (Median) [1, 12]: 150 mm^2 | Tumour volume, overall values (Mean) [1, 12]: 809.03 mm^3 | Tumour volume, overall values (Median) [1, 12]: 800 mm^3 | Tumour surface, overall values (Mean) [1, 13]: 185.33 mm^2 | Tumour surface, overall values (Median) [1, 13]: 198 mm^2 | Tumour volume, overall values (Mean) [1, 13]: 1129.9 mm^3 | Tumour volume, overall values (Median) [1, 13]: 1089 mm^3 | Differences in KLN 205 tumour growth rate vs. placebo, statistical significance p (t-test) ([1]; either in surface or volume, all days scored after day 20th): < 0.05 | Inhibition of the in vivo growth of Lewis lung tumour in inbred mice, in words [2, 3]: inhibit the in vivo growth | SURFACE Overall values (Mean) [2, 14]: 0 mm^2 | SURFACE Overall values (Median) [2, 14]: 0 mm^2 | VOLUME Overall values (Mean) [2, 14]: 0 mm^3 | VOLUME Overall values (Median) [2, 14]: 0 mm^3 | SURFACE Overall values (Mean) [2, 15]: 2.4 mm^2 | SURFACE Overall values (Median) [2, 15]: 0 mm^2 | VOLUME Overall values (Mean) [2, 15]: 3.27 mm^3 | VOLUME Overall values (Median) [2, 15]: 0 mm^3 | SURFACE Overall values (Mean) [2, 16]: 6.73 mm^2 | SURFACE Overall values (Median) [2, 16]: 4 mm^2 | VOLUME Overall values (Mean) [2, 16]: 11.23 mm^3 | VOLUME Overall values (Median) [2, 16]: 4 mm^3 | SURFACE Overall values (Mean) [2, 17]: 20.73 mm^2 | SURFACE Overall values (Median) [2, 17]: 25 mm^2 | VOLUME Overall values (Mean) [2, 17]: 49.97 mm^3 | VOLUME Overall values (Median) [2, 17]: 56 mm^3 | SURFACE Overall values (Mean) [2, 18]: 58.33 mm^2 | SURFACE Overall values (Median) [2, 18]: 49 mm^2 | VOLUME Overall values (Mean) [2, 18]: 269.1 mm^3 | VOLUME Overall values (Median) [2, 18]: 171.5 mm^3 | SURFACE Overall values (Mean) [2, 19]: 106.07 mm^2 | SURFACE Overall values (Median) [2, 19]: 90 mm^2 | VOLUME Overall values (Mean) [2, 19]: 619.43 mm^3 | VOLUME Overall values (Median) [2, 19]: 405 mm^3 | SURFACE Overall values (Mean) [2, 20]: 160.07 mm^2 | SURFACE Overall values (Median) [2, 20]: 120 mm^2 | VOLUME Overall values (Mean) [2, 20]: 1076.9 mm^3 | VOLUME Overall values (Median) [2, 20]: 600 mm^3 | SURFACE Overall values (Mean) [2, 21]: 204.93 mm^2 | SURFACE Overall values (Median) [2, 21]: 169 mm^2 | VOLUME Overall values (Mean) [2, 21]: 1530.4 mm^3 | VOLUME Overall values (Median) [2, 21]: 1080 mm^3 | Differences in Lewis Lung tumour growth rate vs. placebo, statistical significance p (Mann-Whitney U test) ([2]; either in surface or volume, days 10th, 13th and 17 th): < 0.05

— patent US8835466B2, “Synthesis and uses of pyroglutamic acid derivatives” (Prodimed, S.A., priority 2006, dated 2014)
